For the assay, the system named is HIV-1 (HIVIIIB). Nature of the assay: HIV-1 replication in MT2 cell line with and without 30% human serum (viral RT activity in supernatant). The class given is cell-based. Conditions: Human immunodeficiency virus 1, MT2, MT-2 cells, with 30% human serum, average IC50 if tested more than once, read-out: MT-2 (HIVIIIB) with 30% HS IC50 range. As for the experimental part:
HIV-1 Replication in MT2 cell line with and without 30% human serum: The cells are infected at a Multiciplicity of Infection (MOI) of 0.5 for 3 h and then washed twice with complete media to remove residual virus. Cells are then resuspended at 0.5×10^6/ml in complete medium (RPMI, 10% FBS, 1% sodium pyruvate), and seeded into 96-well plates (6.25×10^4/well). The cells are cultured in the presence or absence of various concentrations of test compounds in serial dilutions for 3 days at 37° C. The test compounds are serially diluted in complete medium supplemented or not with 30% human serum. After 3 days, 100 μL of cultured medium with cells are replaced with 120 μL of freshly diluted test compounds in complete medium containing or not 30% Human serum. The level of HIV-1 replication is determined at days 5 after infection by the presence of viral RT activity in harvested supernatant fluid. The IC50 and IC90 values for the virus replication are determined by using GRAPHPAD PRISM software.
The IC50 of the compounds tested in accordance with the HIV replication activity assay MT-2 (HIVIIIB) are represented in Table 4 (without HS) and Table 5 (with 30% HS)

For orientation: IC50 means the concentration that gives 50% inhibition.

Consider `Cc1cccc(NC(=O)[C@@]23CC[C@]4(C)[C@H](CC[C@@H]5[C@@]6(C)CC[C@H](OC(=O)CC(C)(C)C(=O)O)C(C)(C)[C@@H]6CC[C@]54C)C2=C(C(C)C)C(=O)C3)c1` [9-48, 3β-O-(3′,3′-Dimethylsuccinyl)-21-oxolup-18-en-28-oic acid N-3-methyl-phen-1-yl acetamide], for which the IC50 is under 199 nM. For `CC(C)C1=C2[C@H]3CC[C@@H]4[C@@]5(C)CC[C@H](OC(=O)CC(C)(C)C(=O)O)C(C)(C)[C@@H]5CC[C@@]4(C)[C@]3(C)CC[C@@]2(C(=O)NC(C)(C)C2CC2)CC1=O` [9-73, 3β-O-(3′,3′-Dimethylsuccinyl)-21-oxolup-18-en-28-oic acid N-(1-cyclopropyl-1-methyl-ethyl)-acetamide] the value was under 199 nM; for `CC(C)C1=C2[C@H]3CC[C@@H]4[C@@]5(C)CC[C@H](OC(=O)CC(C)(C)C(=O)O)C(C)(C)[C@@H]5CC[C@@]4(C)[C@]3(C)CC[C@@]2(C(=O)Nc2cnc3ccccc3c2)CC1=O` [9-60, 3β-O-(3′,3′-Dimethylsuccinyl)-21-oxolup-18-en-28-oic acid N-quinolin-3-yl-acetamide], under 199 nM. In the case of `CC(C)C1=C2[C@H]3CC[C@@H]4[C@@]5(C)CC[C@H](OC(=O)CC(C)(C)C(=O)O)C(C)(C)[C@@H]5CC[C@@]4(C)[C@]3(C)CC[C@@]2(C(=O)NC2CCNCC2)CC1=O` [9-31, 3β-O-(3′,3′-Dimethylsuccinyl)-21-oxolup-18-en-28-oic acid N-(4-aminopiperidine)-acetamide], the IC50 was 200 to 999 nM.

For `CC(C)C1=C2[C@H]3CC[C@@H]4[C@@]5(C)CC[C@H](OC(=O)CC(C)(C)C(=O)O)C(C)(C)[C@@H]5CC[C@@]4(C)[C@]3(C)CC[C@@]2(C(=O)NC2CCC(F)(F)CC2)CC1=O` [9-85, 3β-O-(3′,3′-Dimethylsuccinyl)-21-oxolup-18-en-28-oic acid N-(4,4-difluoro-cyclohexyl) acetamide], the IC50 is under 199 nM. For `COC(=O)NC1CCN(C(=O)[C@@]23CC[C@]4(C)[C@H](CC[C@@H]5[C@@]6(C)CC[C@H](OC(=O)CC(C)(C)C(=O)O)C(C)(C)[C@@H]6CC[C@]54C)C2=C(C(C)C)C(=O)C3)CC1` [9-45, 3β-O-(3′,3′-Dimethylsuccinyl)-21-oxolup-18-en-28-oic acid N-(4-aminocarboxylic acid methyl ester-1-piperidine)-acetamide] the value was under 199 nM. On to `CC(C)C1=C2[C@H]3CC[C@@H]4[C@@]5(C)CC[C@H](OC(=O)CC(C)(C)C(=O)O)C(C)(C)[C@@H]5CC[C@@]4(C)[C@]3(C)CC[C@@]2(C(=O)N2CCC(N(C)C)CC2)CC1=O` [9-74, 3β-O-(3′,3′-Dimethylsuccinyl)-21-oxolup-18-en-28-oic acid N-(4-dimethylamino-piperidin-1-yl)-acetamide], for which the IC50 is under 199 nM. For `CC(C)C1=C2[C@H]3CC[C@@H]4[C@@]5(C)CC[C@H](OC(=O)CC(C)(C)C(=O)O)C(C)(C)[C@@H]5CC[C@@]4(C)[C@]3(C)CC[C@@]2(C(=O)N2CCNCC2)CC1=O` [9-28, 3β-O-(3′,3′-Dimethylsuccinyl)-21-oxolup-18-en-28-oic acid N-piperazinyl-acetamide] the value was under 199 nM; for `CC(C)C1=C2[C@H]3CC[C@@H]4[C@@]5(C)CC[C@H](OC(=O)CC(C)(C)C(=O)O)C(C)(C)[C@@H]5CC[C@@]4(C)[C@]3(C)CC[C@@]2(C(=O)NCCNC(=O)OC(C)(C)C)CC1=O` [9-20, 3β-O-(3′,3′-Dimethylsuccinyl)-21-oxolup-18-en-28-oic acid N-(2-acetylamino-ethyl)-carbamic acid tert-butyl ester], under 199 nM; for `CC(C)C1=C2[C@H]3CC[C@@H]4[C@@]5(C)CC[C@H](OC(=O)CC(C)(C)C(=O)O)C(C)(C)[C@@H]5CC[C@@]4(C)[C@]3(C)CC[C@@]2(C(=O)Nc2ccccn2)CC1=O` [9-25, 3β-O-(3′,3′-Dimethylsuccinyl)-21-oxolup-18-en-28-oic acid N-pyridin-2-yl-acetamide], under 199 nM.

The values above are taken from patent publication US8431556B2, “C-21-keto lupane derivatives preparation and use thereof” (Vertex Pharmaceuticals Incorporated, priority 2008, dated 2013).
